pIC50: −log10 of the molar value. Read-outs that look alike come from different tables or passages of the source.
Experiments:
[1] = target: CK1ε (Homo sapiens, UniProt P49674); assay: CK1ε kinase assay (Caliper LabChip electrophoretic separation of fluoresceinated peptide substrate and product); assay type: biochemical; details: 200 pM CK1ε, 50 μM ATP, 1.5 μM peptide, 22 hours at room temperature
Outline: (§1)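 Reactions ran 22 hours at room temperature and were stopped with EDTA. Phosphorylated product and unphosphorylated substrate were then separated electrophoretically. Compounds were tested at eleven concentrations, and IC50 values came from non-linear regression.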

[2] = target: CK1δ (Homo sapiens, UniProt P48730); assay: CK1δ kinase assay (Caliper LabChip electrophoretic separation of fluoresceinated peptide substrate and product); assay type: biochemical; details: 200 pM CK1δ, 50 μM ATP, 1.5 μM peptide, 22 hours at room temperature
CK1δ, sequence (P48730 whole entry): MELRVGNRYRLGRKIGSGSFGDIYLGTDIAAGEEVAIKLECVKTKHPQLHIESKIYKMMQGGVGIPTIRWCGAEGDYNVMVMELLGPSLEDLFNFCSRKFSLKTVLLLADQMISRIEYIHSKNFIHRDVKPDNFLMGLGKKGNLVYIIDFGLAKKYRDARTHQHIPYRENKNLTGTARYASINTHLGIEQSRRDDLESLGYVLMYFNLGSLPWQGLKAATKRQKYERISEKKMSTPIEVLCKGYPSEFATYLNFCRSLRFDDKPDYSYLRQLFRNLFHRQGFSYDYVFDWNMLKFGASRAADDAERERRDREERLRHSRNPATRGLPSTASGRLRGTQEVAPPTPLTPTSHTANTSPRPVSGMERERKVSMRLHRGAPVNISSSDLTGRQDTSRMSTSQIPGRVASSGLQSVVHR
Outline: as §1

CK1ε, sequence (P49674 whole entry): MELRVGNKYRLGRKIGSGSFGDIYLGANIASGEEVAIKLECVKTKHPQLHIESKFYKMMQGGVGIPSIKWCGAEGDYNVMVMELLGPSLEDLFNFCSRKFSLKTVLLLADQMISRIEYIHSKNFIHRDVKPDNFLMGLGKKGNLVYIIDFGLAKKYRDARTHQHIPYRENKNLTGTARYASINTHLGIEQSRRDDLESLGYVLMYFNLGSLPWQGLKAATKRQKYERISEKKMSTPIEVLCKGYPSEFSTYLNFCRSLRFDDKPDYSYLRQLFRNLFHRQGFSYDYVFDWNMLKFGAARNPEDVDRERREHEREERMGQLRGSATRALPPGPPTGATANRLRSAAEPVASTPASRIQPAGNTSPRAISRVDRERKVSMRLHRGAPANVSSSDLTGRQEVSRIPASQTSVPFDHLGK

Row | SMILES | pIC50 ([1]; read-out: CK1ε IC50 range) | pIC50 ([2]; read-out: CK1δ) | pIC50 ([2]; read-out: CK1δ IC50 range) | pIC50 ([1]; read-out: CK1ε)
1 | CC(C)(C)NC(=O)N1CCn2nc(-c3cncnc3)c(C(N)=O)c2C1 [Compound 142, N^5-(tert-Butyl)-2-(pyrimidin-5-yl)-6,7-dihydropyrazolo [1,5-a]pyrazine-3,5(4H)-dicarboxamide] | 5.70 to 7.00 | 6.05 | 5.70 to 7.00 | 
2 | CC(C)(C)NC(=O)N1CCn2nc(-c3ccc4cc[nH]c4c3)c(C(N)=O)c2C1 [Compound 143] | 7.00 to 8.00 | 8.38 | 8.00 to 11.00 | 7.48
3 | CC(C)(C)NC(=O)N1CCn2nc(-c3ccc(S(C)(=O)=O)cc3)c(C(N)=O)c2C1 [Compound 144, N^5-(tert-Butyl)-2-(4-(methylsulfonyl)phenyl)-6,7-dihydropyrazolo[1,5-a] pyrazine-3,5(4H)-dicarboxamide] | 5.70 to 7.00 |  | 5.70 to 7.00 | 
4 | CC(C)(C)NC(=O)N1CCn2nc(-c3cn[nH]c3)c(C(N)=O)c2C1 [Compound 145, N^5-(tert-Butyl)-2-(1H-pyrazol-4-yl)-6,7-dihydropyrazolo[1,5-a] pyrazine-3,5(4H)-dicarboxamide] | 5.70 to 7.00 | 5.98 | 5.70 to 7.00 | 5.74
5 | CC(C)(C)NC(=O)N1CCn2nc(-c3cnc(N4CCCC4)nc3)c(C(N)=O)c2C1 [Compound 146, N^5-(tert-Butyl)-2-(2-(pyrrolidin-1-yl)pyrimidin-5-yl)-6,7-dihydropyrazolo[1,5-a]pyrazine-3,5(4H)-dicarboxamide] | 5.70 to 7.00 |  | 5.70 to 7.00 | 
6 | CC(C)(C)NC(=O)N1CCn2nc(-c3cnc(N4CCOCC4)nc3)c(C(N)=O)c2C1 [Compound 147, N^5-(tert-Butyl)-2-(2-morpholinopyrimidin-5-yl)-6,7-dihydropyrazolo[1,5-a] pyrazine-3,5(4H)-dicarboxamide] | 5.70 to 7.00 |  | 5.70 to 7.00 | 
7 | CC(C)(C)NC(=O)N1CCn2nc(-c3ccc4scnc4c3)c(C(N)=O)c2C1 [Compound 149, 2-(Benzo[d]thiazol-5-yl)-N^5-(tert-butyl)-6,7-dihydropyrazolo[1,5-a] pyrazine-3,5(4H)-dicarboxamide] | 5.70 to 7.00 |  | 7.00 to 8.00 | 
8 | CC(C)(C)NC(=O)N1CCn2nc(-c3cc(F)ccc3F)c(C(N)=O)c2C1 [Compound 151, N^5-(tert-Butyl)-2-(2,5-difluorophenyl)-6,7-dihydropyrazolo[1,5-a] pyrazine-3,5(4H)-dicarboxamide] | 5.70 to 7.00 | 6.91 | 5.70 to 7.00 | 6.75
9 | Cn1cc(-c2nn3c(c2C(N)=O)CN(C(=O)NC(C)(C)C)CC3)cn1 [Compound 153, N^5-(tert-Butyl)-2-(1-methyl-1H-pyrazol-4-yl)-6,7-dihydropyrazolo[1,5-a] pyrazine-3,5(4H)-dicarboxamide] | 5.70 to 7.00 |  | 5.70 to 7.00 | 
10 | CC(C)(C)NC(=O)N1CCn2nc(-c3cc(Cl)cc(C#N)c3)c(C(N)=O)c2C1 [Compound 154, N^5-(tert-Butyl)-2-(3-chloro-5-cyanophenyl)-6,7-dihydropyrazolo[1,5-a] pyrazine-3,5(4H)-dicarboxamide] | 7.00 to 8.00 | 7.61 | 7.00 to 8.00 | 7.56
11 | CC(C)(C)NC(=O)N1CCn2nc(-c3cc(F)cc(C(F)(F)F)c3)c(C(N)=O)c2C1 [Compound 155, N^5-(tert-Butyl)-2-(3-fluoro-5-(trifluoromethyl)phenyl)-6,7-dihydropyrazolo[1,5-a] pyrazine-3,5(4H)-dicarboxamide] | 5.70 to 7.00 |  | 5.70 to 7.00 | 
12 | N#Cc1ccc(NC(=O)N2CCn3nc(-c4cccc(Cl)c4)c(C(N)=O)c3C2)cc1C(F)(F)F [Compound 159, 2-(3-Chlorophenyl)-N^5-(4-cyano-3-(trifluoromethyl)phenyl)-6,7-dihydropyrazolo [1,5-a]pyrazine-3,5(4H)-dicarboxamide] | 8.00 to 11.00 |  | 8.00 to 11.00 | 
13 | NC(=O)c1c(-c2cccc(Cl)c2)nn2c1CN(C(=O)Nc1ccc(OC(F)(F)F)cc1)CC2 [Compound 162, 2-(3-Chlorophenyl)-N^5-(4-(trifluoromethoxy)phenyl)-6,7-dihydropyrazolo[1,5-a]pyrazine-3,5(4H)-dicarboxamide] | 8.00 to 11.00 |  | 8.00 to 11.00 | 
14 | N#Cc1ccc(NC(=O)N2CCn3nc(-c4cccc(Cl)c4)c(C(N)=O)c3C2)cc1 [Compound 166, 2-(3-Chlorophenyl)-N^5-(4-cyanophenyl)-6,7-dihydropyrazolo[1,5-a]pyrazine-3,5(4H)-dicarboxamide] | 8.00 to 11.00 | 9.52 | 8.00 to 11.00 | 9.52
15 | NC(=O)c1c(-c2cccc(Cl)c2)nn2c1CN(C(=O)Nc1ccc(C(F)(F)F)cc1)CC2 [Compound 168, 2-(3-Chlorophenyl)-N^5-(4-(trifluoromethyl)phenyl)-6,7-dihydropyrazolo[1,5-a]pyrazine-3,5(4H)-dicarboxamide] | 8.00 to 11.00 |  | 8.00 to 11.00 | 
16 | CC(C)(NC(=O)N1CCn2nc(-c3cccc(Cl)c3)c(C(N)=O)c2C1)C(F)F [Compound 172, 2-(3-Chlorophenyl)-N^5-(1,1-difluoro-2-methylpropan-2-yl)-6,7-dihydropyrazolo[1,5-a] pyrazine-3,5(4H)-dicarboxamide] | 8.00 to 11.00 |  | 8.00 to 11.00 | 
17 | CC(C)(NC(=O)N1CCn2nc(-c3cccc(Cl)c3)c(C(N)=O)c2C1)c1ccc(C#N)cc1 [Compound 173, 2-(3-Chlorophenyl)-N^5-(2-(4-cyanophenyl)propan-2-yl)-6,7-dihydropyrazolo[1,5-a] pyrazine-3,5(4H)-dicarboxamide] | 8.00 to 11.00 |  | 8.00 to 11.00 | 
18 | CC(C)(NC(=O)N1CCn2nc(-c3ccc(F)c(Cl)c3)c(C(N)=O)c2C1)C(F)F [Compound 185, 2-(3-Chloro-4-fluorophenyl)-N^5-(1,1-difluoro-2-methylpropan-2-yl)-6,7-dihydropyrazolo[1,5-a]pyrazine-3,5(4H)-dicarboxamide] | 8.00 to 11.00 |  | 8.00 to 11.00 | 
19 | CC(C)(CC#N)NC(=O)N1CCn2nc(-c3ccc(F)c(Cl)c3)c(C(N)=O)c2C1 [Compound 186, 2-(3-Chloro-4-fluorophenyl)-N^5-(1-cyano-2-methylpropan-2-yl)-6,7-dihydropyrazolo [1,5-a]pyrazine-3,5(4H)-dicarboxamide] | 8.00 to 11.00 |  | 8.00 to 11.00 | 

Now from value to compound:

Row | pIC50 ([1]; read-out: CK1ε IC50 range) | pIC50 ([2]; read-out: CK1δ) | pIC50 ([2]; read-out: CK1δ IC50 range) | pIC50 ([1]; read-out: CK1ε) | SMILES
20 | 8.00 to 11.00 |  | 8.00 to 11.00 |  | NC(=O)c1c(-c2cccc(Cl)c2)nn2c1CN(C(=O)N[C@H]1C[C@H](F)C1)CC2 [Compound 175, 2-(3-Chlorophenyl)-N^5-((1r,3r)-3-fluorocyclobutyl)-6,7-dihydropyrazolo[1,5-a] pyrazine-3,5(4H)-dicarboxamide]
21 | 8.00 to 11.00 |  | 8.00 to 11.00 |  | NC(=O)c1c(-c2cccc(Cl)c2)nn2c1CN(C(=O)N[C@H]1C[C@@H](F)C1)CC2 [Compound 176, 2-(3-Chlorophenyl)-N^5-((1s,3s)-3-fluorocyclobutyl)-6,7-dihydropyrazolo[1,5-a] pyrazine-3,5(4H)-dicarboxamide]
22 | 8.00 to 11.00 |  | 8.00 to 11.00 |  | CO[C@H]1C[C@@H](NC(=O)N2CCn3nc(-c4cccc(Cl)c4)c(C(N)=O)c3C2)C1 [Compound 177, 2-(3-Chlorophenyl)-N^5-((1s,3s)-3-methoxycyclobutyl)-6,7-dihydropyrazolo[1,5-a] pyrazine-3,5(4H)-dicarboxamide]
23 | 8.00 to 11.00 |  | 8.00 to 11.00 |  | CO[C@H]1C[C@H](NC(=O)N2CCn3nc(-c4cccc(Cl)c4)c(C(N)=O)c3C2)C1 [Compound 178, 2-(3-Chlorophenyl)-N^5-((1r,3r)-3-methoxycyclobutyl)-6,7-dihydropyrazolo [1,5-a]pyrazine-3,5(4H)-dicarboxamide]
24 | 8.00 to 11.00 |  | 8.00 to 11.00 |  | NC(=O)c1c(-c2cccc(Cl)c2)nn2c1CN(C(=O)NCC1CC(F)(F)C1)CC2 [Compound 179, 2-(3-Chlorophenyl)-N^5-((3,3-difluorocyclobutyl)methyl)-6,7-dihydropyrazolo[1,5-a]pyrazine-3,5(4H)-dicarboxamide]
25 | 8.00 to 11.00 |  | 8.00 to 11.00 |  | NC(=O)c1c(-c2cccc(Cl)c2)nn2c1CN(C(=O)NCC1CCC(F)(F)CC1)CC2 [Compound 180, 2-(3-Chlorophenyl)-N^5-((4,4-difluorocyclohexyl)methyl)-6,7-dihydropyrazolo[1,5-a]pyrazine-3,5(4H)-dicarboxamide]
26 | 8.00 to 11.00 |  | 8.00 to 11.00 |  | NC(=O)c1c(-c2cccc(Cl)c2)nn2c1CN(C(=O)NC1CC3(CC3)C1)CC2 [Compound 181, 2-(3-Chlorophenyl)-N^5-(spiro[2.3]hexan-5-yl)-6,7-dihydropyrazolo[1,5-a]pyrazine-3,5(4H)-dicarboxamide]
27 | 8.00 to 11.00 |  | 8.00 to 11.00 |  | NC(=O)c1c(-c2cccc(Cl)c2)nn2c1CN(C(=O)NC1CC3(C1)CC(F)(F)C3)CC2 [Compound 182, 2-(3-Chlorophenyl)-N^5-(6,6-difluorospiro[3.3]heptan-2-yl)-6,7-dihydropyrazolo[1,5-a] pyrazine-3,5(4H)-dicarboxamide]
28 | 8.00 to 11.00 |  | 8.00 to 11.00 |  | NC(=O)c1c(-c2cccc(Cl)c2)nn2c1CN(C(=O)N[C@@H]1C[C@@H]3[C@H](C1)C3(F)F)CC2 [Compound 183, 2-(3-Chlorophenyl)-N^5-((1R,3s,5S)-6,6-difluorobicyclo[3.1.0]hexan-3-yl)-6,7-dihydropyrazolo[1,5-a]pyrazine-3,5(4H)-dicarboxamide]
29 | 8.00 to 11.00 |  | 8.00 to 11.00 |  | NC(=O)c1c(-c2cccc(Cl)c2)nn2c1CN(C(=O)N[C@H]1C[C@@H]3[C@H](C1)C3(F)F)CC2 [Compound 184, 2-(3-Chlorophenyl)-N^5-((1R,3r,5S)-6,6-difluorobicyclo[3.1.0]hexan-3-yl)-6,7-dihydropyrazolo[1,5-a]pyrazine-3,5(4H)-dicarboxamide]
